Residues, ends and D or L forms follow the SMILES beside them.
Legend:
hCaSR = molecular target: T1, hCaSR (Homo sapiens, UniProt P41180); experiment: Fluo-4 calcium assay, transiently transfected HEK293T/Gα16-gustducin 44 cells (Example 6a); assay type: cell-based; settings: for hCaSR AVG (net increase in fluorescence over baseline): mean of six replicates, Calcium Chloride (2 mM), Sucralose (0.5 mM), aspartame (0.85 mM), perillartine (50 μM), cinnamonitrile (100 EM), cyclamate (1 mM), NDHC (0.33 mM)
T1 sequence (P41180 20-1078): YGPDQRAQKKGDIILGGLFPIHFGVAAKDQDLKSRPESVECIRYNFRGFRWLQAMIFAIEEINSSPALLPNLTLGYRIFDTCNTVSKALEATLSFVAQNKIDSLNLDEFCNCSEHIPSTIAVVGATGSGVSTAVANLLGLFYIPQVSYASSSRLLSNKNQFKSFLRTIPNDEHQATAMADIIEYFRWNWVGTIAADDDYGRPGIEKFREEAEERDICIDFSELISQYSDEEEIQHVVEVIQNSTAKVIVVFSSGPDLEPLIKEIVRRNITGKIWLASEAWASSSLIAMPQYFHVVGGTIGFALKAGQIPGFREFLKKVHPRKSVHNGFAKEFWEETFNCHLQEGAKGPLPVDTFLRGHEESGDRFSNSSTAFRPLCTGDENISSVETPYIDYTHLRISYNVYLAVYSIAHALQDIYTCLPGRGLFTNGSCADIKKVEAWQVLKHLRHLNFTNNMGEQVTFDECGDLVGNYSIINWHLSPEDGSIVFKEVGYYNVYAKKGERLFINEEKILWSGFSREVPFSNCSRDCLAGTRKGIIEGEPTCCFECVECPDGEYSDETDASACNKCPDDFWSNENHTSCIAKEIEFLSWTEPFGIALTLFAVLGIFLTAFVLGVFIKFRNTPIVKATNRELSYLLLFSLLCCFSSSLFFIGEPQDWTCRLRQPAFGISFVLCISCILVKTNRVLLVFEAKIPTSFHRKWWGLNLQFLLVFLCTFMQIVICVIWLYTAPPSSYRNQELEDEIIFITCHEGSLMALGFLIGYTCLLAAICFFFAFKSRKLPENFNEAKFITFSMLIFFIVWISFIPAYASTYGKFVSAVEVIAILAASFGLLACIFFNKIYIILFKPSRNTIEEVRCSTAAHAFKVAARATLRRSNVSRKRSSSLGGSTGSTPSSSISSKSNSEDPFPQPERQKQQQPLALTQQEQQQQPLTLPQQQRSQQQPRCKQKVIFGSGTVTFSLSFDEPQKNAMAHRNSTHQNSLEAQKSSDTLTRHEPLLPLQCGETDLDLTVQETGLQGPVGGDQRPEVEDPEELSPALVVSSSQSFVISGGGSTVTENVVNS
From the text: The hCaSR vector is used as positive control for a GPCR that is sensitive to calcium, as it is sensitive to calcium and the calcium binding site lies in the VFT of this receptor, which is where the VFT for the chimera is derived from.
(§1) The following ligands were used for to stimulate the transfected cells in the concentrations as indicated in brackets: […]

[1] = test system: Mock transfected HEK293T/Gα16-gustducin 44 cells; experiment: Fluo-4 calcium assay, negative control mock transfection (Examples 6a, 6b); assay type: cell-based, human; settings: mean of six replicates, Calcium Chloride (2 mM), Sucralose (0.5 mM), perillartine (50 μM); for Neg. control (mock transfection) AVG (net increase in fluorescence over baseline): Example 6a, aspartame (0.85 mM), cinnamonitrile (100 EM), cyclamate (1 mM), NDHC (0.33 mM); for Neg. control (mock transfection) AVG (mean ΔF/F): Example 6b
From the text: as §1

[2] = molecular target: T2, T1R2/T1R3 sweet heterodimer (Homo sapiens, UniProt Q7RTX0+Q8TE23, C757R); experiment: Fluo-4 calcium assay, transiently transfected HEK293T/Gα16-gustducin 44 cells (Examples 6a, 6b); assay type: cell-based; settings: Example 6b; mean of six replicates; Calcium Chloride (2 mM), Sucralose (0.5 mM), perillartine (50 μM)
T2 construct: expressed in transfected cells; host or cells: HEK293T cells stably expressing Ga16-gustducin 44, transient co-transfection of pcDNA3.1 constructs
T2 sequence (Q8TE23 20-839): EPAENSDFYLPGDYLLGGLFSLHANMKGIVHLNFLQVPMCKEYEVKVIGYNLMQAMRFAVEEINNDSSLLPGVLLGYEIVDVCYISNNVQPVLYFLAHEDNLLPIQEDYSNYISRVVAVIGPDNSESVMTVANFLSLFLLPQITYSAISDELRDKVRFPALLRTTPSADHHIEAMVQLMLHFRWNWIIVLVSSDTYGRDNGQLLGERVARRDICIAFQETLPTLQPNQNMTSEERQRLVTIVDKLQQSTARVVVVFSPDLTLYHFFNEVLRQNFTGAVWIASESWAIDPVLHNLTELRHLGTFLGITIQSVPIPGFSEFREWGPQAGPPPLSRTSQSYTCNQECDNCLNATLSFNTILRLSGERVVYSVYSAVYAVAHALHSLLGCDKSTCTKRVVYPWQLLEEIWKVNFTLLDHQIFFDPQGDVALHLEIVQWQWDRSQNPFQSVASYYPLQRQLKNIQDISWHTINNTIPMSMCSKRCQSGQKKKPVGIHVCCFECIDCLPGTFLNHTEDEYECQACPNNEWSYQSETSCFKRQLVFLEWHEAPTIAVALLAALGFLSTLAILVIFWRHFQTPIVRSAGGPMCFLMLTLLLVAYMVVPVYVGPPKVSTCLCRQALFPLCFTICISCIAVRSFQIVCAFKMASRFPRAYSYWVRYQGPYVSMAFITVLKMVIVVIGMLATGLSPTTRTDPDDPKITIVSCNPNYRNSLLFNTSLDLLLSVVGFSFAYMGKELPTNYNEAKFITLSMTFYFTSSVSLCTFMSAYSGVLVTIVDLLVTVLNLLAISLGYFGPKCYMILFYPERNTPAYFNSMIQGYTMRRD
T2 sequence (Q7RTX0 21-852 C757R): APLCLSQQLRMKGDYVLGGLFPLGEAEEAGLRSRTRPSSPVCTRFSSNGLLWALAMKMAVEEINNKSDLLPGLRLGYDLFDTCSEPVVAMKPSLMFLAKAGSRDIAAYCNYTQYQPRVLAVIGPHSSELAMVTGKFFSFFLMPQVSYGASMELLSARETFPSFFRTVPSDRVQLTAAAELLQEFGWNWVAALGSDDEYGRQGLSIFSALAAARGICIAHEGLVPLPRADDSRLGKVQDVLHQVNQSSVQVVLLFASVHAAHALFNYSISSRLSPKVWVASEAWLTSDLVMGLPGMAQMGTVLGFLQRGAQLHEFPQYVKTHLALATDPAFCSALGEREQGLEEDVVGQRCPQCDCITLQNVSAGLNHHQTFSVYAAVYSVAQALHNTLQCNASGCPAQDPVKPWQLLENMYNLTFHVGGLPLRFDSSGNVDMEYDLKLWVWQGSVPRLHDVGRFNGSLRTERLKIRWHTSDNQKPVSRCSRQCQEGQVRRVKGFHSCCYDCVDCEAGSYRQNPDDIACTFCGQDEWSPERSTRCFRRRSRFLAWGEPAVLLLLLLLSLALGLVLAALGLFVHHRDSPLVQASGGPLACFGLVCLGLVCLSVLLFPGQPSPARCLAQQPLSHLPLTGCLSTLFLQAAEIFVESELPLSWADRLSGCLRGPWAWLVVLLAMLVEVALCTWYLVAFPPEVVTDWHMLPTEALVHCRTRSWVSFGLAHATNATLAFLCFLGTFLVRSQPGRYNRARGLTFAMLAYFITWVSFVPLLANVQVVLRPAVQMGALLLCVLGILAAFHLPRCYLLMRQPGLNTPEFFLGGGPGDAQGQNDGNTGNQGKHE
From the text: as §1

[3] = molecular target: T3, CSR::T1R2-b/CSR::T1R3-b chimeric heterodimer (Homo sapiens, UniProt P41180+Q7RTX0+Q8TE23); experiment: Fluo-4 calcium assay, transiently transfected HEK293T/Gα16-gustducin 44 cells (Example 6b); settings: mean of six replicates; Calcium Chloride (2 mM), Sucralose (0.5 mM), perillartine (50 μM)
T3 sequence (P41180+Q8TE23 with tags, fused parts or gaps): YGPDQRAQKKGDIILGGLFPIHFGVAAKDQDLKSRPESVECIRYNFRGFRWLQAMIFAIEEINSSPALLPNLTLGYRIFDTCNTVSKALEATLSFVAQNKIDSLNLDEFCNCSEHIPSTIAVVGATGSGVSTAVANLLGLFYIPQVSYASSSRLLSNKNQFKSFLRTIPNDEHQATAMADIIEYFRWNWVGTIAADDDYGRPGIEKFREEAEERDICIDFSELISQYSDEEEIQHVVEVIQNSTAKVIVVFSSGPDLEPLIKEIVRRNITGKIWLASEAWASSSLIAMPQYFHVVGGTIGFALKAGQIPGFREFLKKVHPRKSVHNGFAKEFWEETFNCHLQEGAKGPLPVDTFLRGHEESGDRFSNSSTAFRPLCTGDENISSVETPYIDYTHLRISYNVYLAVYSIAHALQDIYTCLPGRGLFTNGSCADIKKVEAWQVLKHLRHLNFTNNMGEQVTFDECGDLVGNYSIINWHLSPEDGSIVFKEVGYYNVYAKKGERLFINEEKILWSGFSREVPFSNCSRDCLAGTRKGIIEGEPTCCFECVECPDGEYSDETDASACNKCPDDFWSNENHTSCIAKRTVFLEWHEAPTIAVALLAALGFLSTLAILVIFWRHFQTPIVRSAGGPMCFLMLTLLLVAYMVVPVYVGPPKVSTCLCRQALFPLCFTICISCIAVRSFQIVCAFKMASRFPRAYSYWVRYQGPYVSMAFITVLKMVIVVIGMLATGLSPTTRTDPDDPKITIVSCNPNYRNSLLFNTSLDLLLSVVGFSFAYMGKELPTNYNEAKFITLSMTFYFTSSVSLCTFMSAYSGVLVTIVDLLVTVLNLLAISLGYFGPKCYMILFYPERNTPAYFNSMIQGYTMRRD
T3 sequence (P41180+Q7RTX0 with tags, fused parts or gaps): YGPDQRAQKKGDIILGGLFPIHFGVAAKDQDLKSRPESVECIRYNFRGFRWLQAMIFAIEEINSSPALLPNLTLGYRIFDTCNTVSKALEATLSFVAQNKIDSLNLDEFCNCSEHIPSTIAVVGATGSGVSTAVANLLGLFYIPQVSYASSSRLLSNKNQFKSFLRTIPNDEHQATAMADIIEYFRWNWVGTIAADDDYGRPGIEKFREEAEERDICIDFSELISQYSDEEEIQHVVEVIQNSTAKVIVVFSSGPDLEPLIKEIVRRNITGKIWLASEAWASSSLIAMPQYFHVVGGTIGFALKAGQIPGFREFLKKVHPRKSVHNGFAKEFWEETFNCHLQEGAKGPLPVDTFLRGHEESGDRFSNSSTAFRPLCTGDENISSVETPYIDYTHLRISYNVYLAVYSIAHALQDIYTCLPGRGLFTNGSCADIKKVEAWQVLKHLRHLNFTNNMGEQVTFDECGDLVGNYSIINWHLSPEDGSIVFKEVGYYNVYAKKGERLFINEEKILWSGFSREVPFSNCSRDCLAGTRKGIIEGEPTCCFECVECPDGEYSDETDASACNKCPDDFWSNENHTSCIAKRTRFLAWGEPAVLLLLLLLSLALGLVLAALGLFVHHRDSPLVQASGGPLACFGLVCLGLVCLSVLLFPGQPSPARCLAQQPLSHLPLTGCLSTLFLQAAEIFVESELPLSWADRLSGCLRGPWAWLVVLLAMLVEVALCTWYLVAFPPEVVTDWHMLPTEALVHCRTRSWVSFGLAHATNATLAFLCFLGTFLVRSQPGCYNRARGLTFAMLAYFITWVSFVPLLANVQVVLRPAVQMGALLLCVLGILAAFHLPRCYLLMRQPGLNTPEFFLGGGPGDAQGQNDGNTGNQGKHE
Protocol: (§2) Fluo-4 is a fluorescent indicator for intracellular calcium and allows to determine changes in the calcium concentration, in particular an increase in response to receptor activation occurring after ligand addition.
(§3) Black, clear-bottom 96-well plates were used for all assays. They were seeded the day before with 8500 transfected cells per well and maintained at 37° C. overnight in an a growth medium appropriate for the cells used. For HEK293 cells, Dulbecco's Modified Eagle medium containing high glucose, L-glutamine, pyroxidine hydrochloride, and supplemented with 10% fetal bovine serum was used for growth and maintenance of the HEK293 cells.
(§4) After the initial 1 hour loading period, the plates were washed 5 times with 100 μl per well of reduced calcium C1 buffer using an automated plate washer (BioTek) and after washing, the plate was further incubated for 30 minutes at room temperature in the dark to allow for complete de-esterification of the Fluo-4-AM. The buffer solutions were discarded, the plate was washed 5 times with 100 μl reduced calcium C1 wash buffer and finally the cells were reconstituted in 180 μl of reduced calcium C1 wash buffer.
(§5) For assay reading, the plate was placed in a FLIPR (fluorescence imaging plate reader (FLIPR-Tetra, Molecular Devices)), and receptor activation was initiated following addition of 20 μl of a 10× concentrated ligand stock solution, which were prepared in reduced calcium C1 buffer.
(§6) Receptor activation is given in relative fluorescence units (RFU) and is defined by the following equation: Fluorescence Increase=Maximum Fluorescence−baseline fluorescence, wherein the baseline fluorescence represents the mean fluorescence calculated for the first 10 to 15 seconds prior to ligand addition.
As a negative control, mock transfected cells were exposed to the same concentration of ligand and the concentration of calcium traces not corresponding to a signal was determined. […]
(§7) The calcium mobilization signals obtained are increase in peak fluorescence (F) normalized to the baseline fluorescence (F0). […]

CSR::T1R2-b homomer = molecular target: T4, CSR::T1R2-b homomer (Homo sapiens, UniProt P41180+Q8TE23); experiment: as above; settings: mean of six replicates; Calcium Chloride (2 mM), Sucralose (0.5 mM), perillartine (50 μM)
T4 sequence (P41180+Q8TE23 with tags, fused parts or gaps): T3 sequence (P41180+Q8TE23 with tags, fused parts or gaps)
Protocol: as §2, §3, §4, §5, §6
As a negative control, mock transfected cells were exposed to the same concentration of ligand and the concentration of calcium traces not corresponding to a signal was determined.
as §7

| SMILES | hCaSR AVG (net increase in fluorescence over baseline) (hCaSR) | Neg. control (mock transfection) AVG (net increase in fluorescence over baseline) [1] | response of hCaSR (in words) (hCaSR; Example 6a) | T1R2/T1R3 AVG (mean ΔF/F) [2] | Neg. control (mock transfection) AVG (mean ΔF/F) [1] | CSR::T1R2-b/CSR::T1R3-b AVG (mean ΔF/F) [3] | CSR::R2-b alone AVG (mean ΔF/F) (CSR::T1R2-b homomer) |
| --- | --- | --- | --- | --- | --- | --- | --- |
| COC(=O)[C@H](Cc1ccccc1)NC(=O)[C@@H](N)CC(=O)O [Aspartame] (H-Asp-Phe-OMe) | 41 RFU | −125 RFU |  |  |  |  |  |
| [Ca+2].[Cl-].[Cl-] [Calcium, Calcium Chloride] | 7610 RFU | 1570 RFU | responded | 0.19 ΔF/F | 0.20 ΔF/F | 0.46 ΔF/F | 0.424 ΔF/F |
| N#CC=Cc1ccccc1 [Cinnamonitrile] | 197 RFU |  |  |  |  |  |  |
| C=C(C)[C@@H]1CC=C(/C=N/O)CC1 [Perillartine] | 73 RFU | −379 RFU |  | 0.5 ΔF/F | 0.06 ΔF/F | 0.169 ΔF/F | 0.11 ΔF/F |
| OC[C@H]1O[C@H](O[C@]2(CCl)O[C@H](CCl)[C@@H](O)[C@@H]2O)[C@H](O)[C@@H](O)[C@H]1Cl [Sucralose] | 22 RFU |  |  | 0.12 ΔF/F | 0.03 ΔF/F | 0.017 ΔF/F | 0.016 ΔF/F |

From US7964376B2, “Chimeric proteins and their use in methods to screen for sweet taste modulators” (Givaudan SA, priority 2006, dated 2011)
